The values below come from patent publication US10494384B2, “Urea peptoid boric acid compound, pharmaceutical composition thereof, preparation method therefor, and uses thereof” (Peking University, priority 2015, dated 2019).

Assay [1] deals with T1, 20S proteasome extracted from rat liver (CT-L) (Rattus norvegicus, UniProt P18421+P28075).
T1 construct: 20S proteasome extracted from rat liver; from tissue; host or cells: rat liver
The assay is described as follows: inhibition of 20S proteasome, CT-L activity (fluorescent peptide). Conditions: rat liver 20S proteasome, 37° C., 1 h, read-out: inhibition rates (%) CT-L. Type of assay: biochemical. The method, then: (§1) 1 μg of 20S proteasome extracted from rat liver was incubated with a 100 μL solution containing various concentrations of the present compounds, 50 μM fluorescent peptides and 20 mM Tris-HCl at 37° C. for 1 h, respectively. […] 0.1% DMSO was used as a solvent control. Compared with the fluorescence of solvent control, an inhibition rate or IC50 value was calculated.

For assay [2], the system named is Hela, human cervical carcinoma. The assay is described as follows: preliminary anti-tumor screening in vitro, MTT method. The settings on record: read-out: inhibition rates (%) Hela. Type of assay: cell-based. As for the experimental part: (§2) The test methods used in this test example are routine methods for anti-tumor activities test in pharmaceutical area, for example, referring to the following reference: (J. Immunol Method, 1983, 65, 55).
(§3) Test models: A: MTT method (Hela, human cervical carcinoma); B: SRB method (BGC-823, […]); C: SRB method (MCF-7, breast cancer); D: SRB method (A549, human lung cancer); E: SRB method (PC3M1E8, prostate cancer).
(§4) Inhibition rates of the compounds were measured under concentrations of 0.1 μM, 1 μM or 10 μM.

In the next assay the test system is BGC-823, liver cancer. The assay can be described thus: preliminary anti-tumor screening in vitro, SRB method. In kind it is cell-based. Conditions: Homo sapiens, read-out: inhibition rates (%) BGC-823. As for the experimental part:
as §2, §3, §4
For orientation: Sulforhodamine B stains cellular protein and so reports cell mass.

A further assay has as its system MCF-7, breast cancer. The description is as above. Type of assay: cell-based. The settings on record: Homo sapiens, read-out: inhibition rates (%) MCF-7; for inhibition at 0.1 µM: MCF7, 0.1 μM; for inhibition at 1 µM: MCF7, 1 μM; for inhibition at 10 µM: MCF7, 10 μM. The method, then:
as §2, §3, §4

Another assay relates to A549, human lung cancer. The description is as above. In kind it is cell-based. Conditions: read-out: inhibition rates (%) A549. As for the experimental part:
as §2, §3, §4

For assay [3], the target named is T2, 20S proteasome extracted from rat liver (PGPH) (Rattus norvegicus, UniProt P28073+Q9JHW0).
T2 construct: 20S proteasome extracted from rat liver; from tissue; host or cells: rat liver
The assay can be described thus: inhibition of 20S proteasome, PGPH activity (fluorescent peptide). The settings on record: rat liver 20S proteasome, 37° C., 1 h, read-out: inhibition rates (%) PGPH. Type of assay: biochemical. As for the experimental part:
as §1

Assay [4] has as its target T3, 20S proteasome extracted from rat liver (T-L) (Rattus norvegicus, UniProt P40112+Q9JHW0).
T3 construct: 20S proteasome extracted from rat liver; from tissue; host or cells: rat liver
The assay is described as follows: inhibition of 20S proteasome, T-L activity (fluorescent peptide). In kind it is biochemical. Conditions: rat liver 20S proteasome, 37° C., 1 h, read-out: inhibition rates (%) T-L. The method, then: as §1

The inhibition is the change of the read-out against control, counted positive when it falls. For the compound `CC(C)C[C@H](NC(=O)[C@H](Cc1ccccc1)NC(=O)Nc1cnccn1)B(O)O` [Example 17, N-L-phenylalanyl-L-leucine borate-N′-(pyrazin-2-ylamine)-urea], the inhibition at 0.2 µM was 10.5% in assay [1], 3.75% in assay [3] and -3.77% in assay [4]. The figures for the inhibition at 2 µM in assay [1], in assay [3] and in assay [4] were 87.3%, 8.57% and 10.5%, respectively. In addition, the inhibition at 20 µM came to 95.8% in assay [1], 94.5% in assay [3] and 57.3% in assay [4]. Also, the inhibition at 0.1 µM in assay [2] was determined as 12.1%; in the assay on BGC-823, liver cancer it was 7.89%; in the assay with MCF-7, breast cancer, 8.29%; in the assay with A549, human lung cancer, 5.46%. The inhibition at 1 µM in assay [2] came to 34.6%; with BGC-823, liver cancer, 27.1%; in the assay with MCF-7, breast cancer, 26.2%; in the assay on A549, human lung cancer it was 40.9%. Besides, the inhibition at 10 µM is 51.5% in assay [2]; 52.7% in the assay on BGC-823, liver cancer; 37.6% in the assay with MCF-7, breast cancer; 66% with A549, human lung cancer.
Take `CC(C)C[C@H](NC(=O)CNC(=O)Nc1cccc(OCc2ccccc2)c1)B(O)O` [Example 21, N-glycyl-L-leucine borate-N′-(3-benzyloxy-phenylamine)-urea]: the inhibition at 0.2 µM in assay [1] is 47.3%; in assay [3] it was 8.58%; in assay [4] it was 0.355%. Also, the inhibition at 2 µM in assay [1] is 90.9%; in assay [3], 62.5%; in assay [4], 29.3%. For the same compound, the inhibition at 20 µM in assay [1] was 95.6%; in assay [3], 96.9%; in assay [4] it was 62%. Besides, the inhibition at 0.1 µM in assay [2] came out at 9.87%; in the assay with BGC-823, liver cancer, 0.38%; in the assay on MCF-7, breast cancer, 5.41%; in the assay on A549, human lung cancer it was 7.42%. Further, the inhibition at 1 µM stood at 12.9% in assay [2]; 2.21% with BGC-823, liver cancer; 9.64% in the assay on MCF-7, breast cancer; 25.2% in the assay with A549, human lung cancer. The inhibition at 10 µM in assay [2] worked out at 29.9%; in the assay on BGC-823, liver cancer, 23.1%; in the assay on MCF-7, breast cancer, 24.2%; in the assay with A549, human lung cancer it was 41.4%.
As to `CC(C)C[C@H](NC(=O)CNC(=O)Nc1cc(Cl)ccc1Cl)B(O)O` [Example 22, N-glycyl-L-leucine borate-N′-(2,5-dichloro-phenylamine)-urea], the inhibition at 0.2 µM is 62% in assay [1], 10.1% in assay [3] and -3.95% in assay [4]. Moreover, the results for the inhibition at 2 µM in assay [1], in assay [3] and in assay [4] were 89.7%, 7.17% and 28.3%, respectively. For the same compound, the inhibition at 20 µM in assay [1] stood at 93.3%; in assay [3], 5.29%; in assay [4], 53.1%. The inhibition at 0.1 µM in assay [2] is 8.66%; in the assay with BGC-823, liver cancer it was 2.04%; with MCF-7, breast cancer it was 7.17%; with A549, human lung cancer, 1.88%. In addition, the inhibition at 1 µM in assay [2] came to 19.7%; with BGC-823, liver cancer, 9.01%; with MCF-7, breast cancer it was 12.7%; in the assay on A549, human lung cancer, 28.3%. Moreover, the inhibition at 10 µM is 43.4% in assay [2]; 44.5% with BGC-823, liver cancer; 42.2% with MCF-7, breast cancer; 65.6% with A549, human lung cancer.
